Drawing on patent US4024252A, “2-(5-Ethyl-6-bromothiazolo[3,2-b]-5-triazolyl)thiophosphonate esters, compositions and method of use” (priority 1973, dated 1977), this text covers LD50, LC50 and mortality for 9 compounds.

Data set [1] in a line: Toxicity Test 1, acute oral toxicity. The settings on record: in vivo, mouse; for LD50: oral; for LD50 at 336 h: po, mice, stomach tube, 25% aqueous gum arabic, 2 weeks (Table 7). From the text:
Suspension of the test compound in 25% aqueous solution of gum arabic was compulsorily treated to six mice by means of a stomack tube and inspection had been made for 2 weeks.

Data set [2] can be described thus: Toxicity Test 2, medium tolerated limit in carp. The settings on record: water. It is filed as in vivo, Cyprinus carpio. Here is the method: The test compound was dissolved in dimethylformamide and said solution was added to 20 liters of water containing 10 carps (Cyprinus carpio) in a fixed concentration.
Dead fish within 48 hours from the addition of test compounds was counted.
The results were shown in Table 8 as medium tolerated limit (TLm).
*TLm is the concentration of test compound which half the number of fish

Data set [3] relates to house flies (Musca domestica Linne). The data set is described as follows: Test 1 Insecticidal Activity against Fly. It counts as in vivo. To be noted: topical; for mortality at 0.25 µg/fly: 0.25γ/a fly; for mortality at 0.5 µg/fly: 0.5γ/a fly. Here is the method: Fixed concentration of acetone solution containing test compound were prepared.
20 pieces of female adults of house flies (Musca domestica Linne) were tested with 1 μl of acetone solution at their thoracie dorsal by microcylinge and kept at a temperature of 25° C and at a humidity of 65%. 24 hours and 48 hours after treatment, dead flies were counted and mortality (%) was calculated.

Data set [4] relates to Cabbage armyworm (Leucania separate Walker). The data set is described as follows: Test 2 Insecticidal Activity against Cabbage armyworm. It counts as in vivo. The procedure:
10 Multigeneration bred armyworms (Leucania separate Walker) were used for one experimental zone.
[…] Then the leaf was set an filter paper having 9 cm diameter in a schale. The test insects were inoculated into the dish and the cover was put on it. After 1 day and 3 days from inoculation, dead insects were counted and mortality (%) were calculated. The results were shown in

Data set [5] has as its system desert spider mite (Tetranychus desertorum Banks). The data set is described as follows: Test 3 Test for Control of Mite. It is filed as in vivo. The settings on record: 72 h, read-out: Rating of mortality. The procedure:
About 30 adult female mites of desert spider mite (Tetranychus desertorum Banks) laid on main leaves of the potted kidney bean plants grown 7 to 10 days stage after aprouting. One day later, the wounded mites were removed from the plants. The compounds to be tested were sprayed on the plants as water suspension of emulsifiable concentrate prepared by the method of Example 6. After 1 day and 3 days from spraying, dead mites were counted and mortality (%) was calculated.

Data set [6] has as its system Rice stem borer (Chilo suppressalis Walker). Nature of the data set: Test 4 Insecticidal Activity against Rice stem borer. It is filed as in vivo. The settings on record: 168 h, a week after spraying. The procedure: 20 hatched nymph of Rice stem borer (Chilo suppressalis Walker) were inoculated to the potted rice (height: 30 - 40 cm, number: 4/pot). A week after inoculation, 30 ml of fixed concentration of solution containing test compound were sprayed on the rice in which hatched nymph were inhabiting and the pots were kept at the room temperature. A week after spraying, the rice was opened, dead Rice stem borers were counted and mortality (%) was calculated.

Data set [7] has as its system tobacco cutworms (Prodenia litura Fabricius). Nature of the data set: Test 5 Test for Control of Tobacco cutworm. It is filed as in vivo. The settings on record: 72 h, 3 days; for mortality at 31.3 ppm: 31.3 p.p.m.; for mortality at 62.5 ppm: 62.5 p.p.m.; for mortality at 125 ppm: 125 p.p.m. Here is the method:
Then the leaf and 5 tobacco cutworms (Prodenia litura Fabricius) of 3 stages larva were put into a covered dish.
The test was carried out twice. After 3 days from inoculation, dead insects were counted and mortality (%) was calculated.

In data set [8] the test system is northern house mosquito (Culex pipiens molestus Forskal). Nature of the data set: Test 6 Insecticidal Activity against Mosquito. It counts as in vivo. The settings on record: 24 hours after inoculation, aqueous suspension of wettable powder. The procedure: An aqueous suspension of formulated wettable powder were poured in 200 ml beaker and in which 20 northern house mosquito (Culex pipiens molestus Forskal) were inoculated.

The mark [9] stands for this setting: 48 hrs, read-out: medium tolerance limit (48 hrs) for carp.
[10] abbreviates: 48 hours (Table 8), read-out: TLm (medium tolerated limit).

Converted amounts (≈) assume the structure as drawn. Where two headings read alike, the source gives them in different places. Where only a bound is given, the exact number is not on record here.

Take `CCOP(=S)(OCC)Oc1nc2sc(Br)c(C)n2n1` [O,O-diethyl-2-(5-methyl-6-bromothiazolo[3,2-b]-s-triazolyl)thionophosphate, reference compound]: the median lethal dose (LD50) – broadly, the dose at which mortality reaches 50% – in data set [1] amounted to 150 mg/kg. Further, the LC50 at 48 h in data set [2] (setting [9]) is under 0.05 µg/mL.
In turn, `CCc1c(Br)sc2nc(OP(=S)(OC)OC)nn12` [drawing 11] returned a median lethal dose (LD50) at 336 h in data set [1] of over 200 mg/kg.
For the compound `CCc1c(Br)sc2nc(OP(=S)(OC(C)C)OC(C)C)nn12` [drawing 16], in data set [2] (setting [10]), the LC50 at 48 h was over 5 µg/mL.
On the same count and under the same terms, the value for `CCc1c(Br)sc2nc(OP(=S)(OC)OC)nn12` [drawing 15] was over 5 µg/mL.
Turning to `CCOP(=S)(OCC)Oc1nc2scc(C)n2n1` [Comparison compound, O,O-diethyl-2-(5-methylthiazolo[3,2-b]-s-triazolyl)thionophosphate, reference compound], in data set [3] (24 hrs.), the mortality (usually the percentage killed) at 0.25 µg/fly was 0% and the mortality at 0.5 µg/fly stood at 70%. For the same compound, in data set [3] (48 hrs.), the mortality at 0.25 µg/fly is 10% and the mortality at 0.5 µg/fly came to 70%. The compound also showed a mortality at 15.7 ppm in data set [4] (24 h) of 30%. In data set [4] (24 h, 1 day), this compound gave a mortality at 7.8 ppm of 0% and a mortality at 31.3 ppm of 70%. Besides, the mortality at 15.7 ppm in data set [4] (72 h) was 80%. In data set [4] (72 h, 3 days), the mortality at 7.8 ppm worked out at 0% and the mortality at 31.3 ppm came out at 100%. Moreover, the mortality at 500 ppm in data set [5] was 100%. Moreover, the mortality at 15.6 ppm in data set [6] (15.6 ppm) came to 84%. The mortality at 31.3 ppm in data set [6] was determined as 100%. Moreover, in data set [7], the mortality at 31.3 ppm amounted to 0%, the mortality at 62.5 ppm was 80% and the mortality at 125 ppm was determined as 100%. Also, the LC50 in data set [8] turned out to be 0.04 µg/mL (≈ 0.13 µM). Also, in data set [1], the LD50 was 33 to 50 mg/kg and the 50% lethal dose (LD50) at 336 h fell in the range of 33 to 50 mg/kg. For the same compound, the LC50 at 48 h in data set [2] (setting [10]) is under 0.5 µg/mL.
Turning to `CCOP(=S)(OCC)Oc1nc2sc(Br)c(CC)n2n1` [Example 2, O,O-Diethyl 2-(5-ethyl-6-bromothiazolo[3,2-b]-s-triazolyl) thionophosphate], the figures for the mortality at 0.25 µg/fly in data set [3] (24 hrs.) and in data set [3] (48 hrs.) were 30% and 40%, respectively. Besides, the mortality at 0.5 µg/fly in data set [3] (24 hrs.) and in data set [3] (48 hrs.) was 100% each time. The mortality at 15.7 ppm in data set [4] (24 h) worked out at 90%; in data set [4] (72 h), 100%. The mortality at 7.8 ppm in data set [4] (24 h, 1 day) amounted to 60%; in data set [4] (72 h, 3 days) it was 100%; in data set [6] (7.8 ppm), 91%. Further, the mortality at 31.3 ppm in data set [4] (24 h, 1 day) turned out to be 100%; in data set [4] (72 h, 3 days), 100%; in data set [6], 100%; in data set [7], 80%. Moreover, the mortality at 500 ppm in data set [5] came out at 100%. This compound also came in with a mortality at 15.6 ppm in data set [7] (15.6 p.p.m.) of 60%. In data set [7], this compound had a mortality at 62.5 ppm of 100%. For the same compound, in data set [7], the mortality at 125 ppm worked out at 100%. This compound registered an LC50 in data set [8] of 0.003 µg/mL (≈ 0.0075 µM). This compound also showed a median lethal dose (LD50) in data set [1] of 280 mg/kg. In data set [1], this compound returned an LD50 at 336 h of 280 mg/kg. In data set [2] (setting [9]), the LC50 at 48 h worked out at 18.5 µg/mL.
In the case of `CCc1c(Br)sc2nc(OP(=S)(OC)OC)nn12` [Example 1, O,O-Dimethyl 2-(5-ethyl-6-bromothiazolo[3,2-b]s-triazolyl) thionophosphate], the mortality at 15.7 ppm in data set [4] (24 h) is 60%; in data set [4] (72 h), 100%. The mortality at 7.8 ppm in data set [4] (24 h, 1 day) is 50%; in data set [4] (72 h, 3 days), 90%. For the same compound, the mortality at 31.3 ppm in data set [4] (24 h, 1 day) came out at 100%; in data set [4] (72 h, 3 days), 100%. Further, the mortality at 500 ppm in data set [5] was 100%.
As for `CCc1c(Br)sc2nc(OP(=S)(OC(C)C)OC(C)C)nn12` [Example 3, O,O-diisopropyl 2-(5-ethyl-6-bromothiazolo[3,2-b]-s-triazolyl)thionophosphate], the mortality at 15.7 ppm in data set [4] (24 h) came out at 60%; in data set [4] (72 h), 100%. The mortality at 7.8 ppm in data set [4] (24 h, 1 day) is 50%; in data set [4] (72 h, 3 days) it was 90%. The mortality at 31.3 ppm was 100% in data set [4] (24 h, 1 day) and 100% in data set [4] (72 h, 3 days).
In data set [1], `CCc1c(Br)sc2nc(OP(=S)(OC(C)C)OC(C)C)nn12` [drawing 12] showed an LD50 at 336 h of over 200 mg/kg.
